Laboratory results taken from US20140243302A1, “BRIDGED BICYCLIC COMPOUNDS FOR THE TREATMENT OF BACTERIAL INFECTIONS” (priority 2011, published 2014).
In brackets after ≈: the same amount, converted by molar mass.

Tested on: Staphylococcus aureus Smith
Assay: MIC assay, modified agar dilution (CLSI), S. aureus Smith
Format: cell-based
Conditions: Staphylococcus aureus, agar dilution, 35° C., 16-20 hr; lowest concentration that completely inhibited growth; read-out: S_aureus_Smith_WT_MIC
Summary of the method: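 Agar dilution per CLSI on Mueller Hinton agar (plus 5% horse blood for S. pneumoniae and E. faecium), compound 128 to 0.001 μg/mL in two-fold steps. Spots of ~1×10^4 CFU incubated at 35 °C for 16-20 hr before MIC scoring.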

Q: With `COc1ccc2ncc(F)c(CCC34CCC(NCc5cc6c(cn5)OCCO6)(CC3)CO4)c2n1` [Example 61, N-((2,3-Dihydro-[1,4]dioxino[2,3-c]pyridin-7-yl)methyl)-1-(2-(3-fluoro-6-methoxy-1,5-naphthyridin-4-yl)ethyl)-2-oxabicyclo[2.2.2]octan-4-amine] as the compound, how does the MIC read?
A: Its MIC is 0.063 µg/mL (≈ 0.131 µM).

Q: `COc1ccc2ncc(F)c(CCC34CCC(NCc5cc(OC)c(OC)cn5)(CC3)CO4)c2n1` [Example 62, N-((4,5-Dimethoxypyridin-2-yl)methyl)-1-(2-(3-fluoro-6-methoxy-1,5-naphthyridin-4-yl)ethyl)-2-oxabicyclo[2.2.2]octan-4-amine] was tested. Which MIC did it give?
A: Its MIC is 4 µg/mL (≈ 8.29 µM).

Q: How did the MIC turn out when `COc1ccc2ncc(F)c(CCC34CCC(NCc5ccc(N6CCCC6)cn5)(CC3)CO4)c2n1` [Example 63, 1-(2-(3-Fluoro-6-methoxy-1,5-naphthyridin-4-yl)ethyl)-N-((5-(pyrrolidin-1-yl)pyridin-2-yl)methyl)-2-oxabicyclo[2.2.2]octan-4-amine] was run?
A: Its MIC is 0.25 µg/mL (≈ 0.509 µM).

Q: `COc1ccc2ncc(F)c(CCC34CCC(NCc5ccc(N6CCOCC6)nc5)(CC3)CO4)c2n1` [Example 64, 1-(2-(3-Fluoro-6-methoxy-1,5-naphthyridin-4-yl)ethyl)-N-((6-morpholinopyridin-3-yl)methyl)-2-oxabicyclo[2.2.2]octan-4-amine] was tested. Which MIC did it give?
A: Its MIC is 4 µg/mL (≈ 7.88 µM).

Q: With `COc1ccc2ncc(F)c(CCC34CCC(NCc5cnc(N6CCOCC6)nc5)(CC3)CO4)c2n1` [Example 65, 1-(2-(3-Fluoro-6-methoxy-1,5-naphthyridin-4-yl)ethyl)-N-((2-morpholinopyrimidin-5-yl)methyl)-2-oxabicyclo[2.2.2]octan-4-amine] as the compound, how does the MIC read?
A: The MIC was 2 µg/mL (≈ 3.93 µM).

Q: Which MIC does the source give for `COc1ccc2ncc(F)c(CCC34CCC(NCc5ccc6c(c5)OCCN6C)(CC3)CO4)c2n1` [Example 66, 1-(2-(3-Fluoro-6-methoxy-1,5-naphthyridin-4-yl)ethyl)-N-((4-methyl-3,4-dihydro-2H-benzo[b][1,4]oxazin-7-yl)methyl)-2-oxabicyclo[2.2.2]octan-4-amine] here?
A: Its MIC is 0.125 µg/mL (≈ 0.254 µM).

Q: Which MIC does the source give for `COc1ccc2ncc(F)c(CCC34CCC(NCc5cc(Cl)c6c(c5)OCCO6)(CC3)CO4)c2n1` [Example 67, N-((8-Chloro-2,3-dihydrobenzo[b][1,4]dioxin-6-yl)methyl)-1-(2-(3-fluoro-6-methoxy-1,5-naphthyridin-4-yl)ethyl)-2-oxabicyclo[2.2.2]octan-4-amine] here?
A: The MIC was 0.031 µg/mL (≈ 0.0603 µM).

Q: `COc1ccc2ncc(F)c(CCC34CCC(NC(=O)c5ccc(C)c(F)c5)(CC3)CO4)c2n1` [Example 68, 3-Fluoro-N-(1-(2-(3-fluoro-6-methoxy-1,5-naphthyridin-4-yl)ethyl)-2-oxabicyclo[2.2.2]octan-4-yl)-4-methylbenzamide] was tested. Which MIC did it give?
A: The MIC was 0.016 µg/mL (≈ 0.0342 µM).

Q: How did the MIC turn out when `COc1ccc2ncc(F)c(CCC34CCC(NCc5ccc6c(c5)OCCO6)(CC3)CO4)c2n1` [Example 69, N-((2,3-Dihydrobenzo[b][1,4]dioxin-6-yl)methyl)-1-(2-(3-fluoro-6-methoxy-1,5-naphthyridin-4-yl)ethyl)-2-oxabicyclo[2.2.2]octan-4-amine] was run?
A: The MIC was 0.008 µg/mL (≈ 0.0167 µM).

Q: How did the MIC turn out when `COc1ccc2ncc(F)c(CCC34CCC(NCC5CCCCC5)(CC3)CO4)c2n1` [Example 70, N-(Cyclohexylmethyl)-1-(2-(3-fluoro-6-methoxy-1,5-naphthyridin-4-yl)ethyl)-2-oxabicyclo[2.2.2]octan-4-amine] was run?
A: The MIC was 2 µg/mL (≈ 4.68 µM).

Q: For `COc1ccc2ncc(F)c(CCC34CCC(NS(=O)(=O)c5ccc(C)c(F)c5)(CC3)CO4)c2n1` [Example 71, 3-Fluoro-N-(1-(2-(3-fluoro-6-methoxy-1,5-naphthyridin-4-yl)ethyl)-2-oxabicyclo[2.2.2]octan-4-yl)-4-methylbenzenesulfonamide], which MIC is on record?
A: Its MIC is 1 µg/mL (≈ 1.99 µM).

Q: For `COc1ccc2ncc(F)c(CCC34CCC(NCc5cc(Cl)c6c(c5)OCO6)(CC3)CO4)c2n1` [Example 72, N-((7-Chlorobenzo[d][1,3]dioxol-5-yl)methyl)-1-(2-(3-fluoro-6-methoxy-1,5-naphthyridin-4-yl)ethyl)-2-oxabicyclo[2.2.2]octan-4-amine], which MIC is on record?
A: The MIC was 0.125 µg/mL (≈ 0.25 µM).

Q: How did the MIC turn out when `COc1ccc2ncc(F)c(CCC34CCC(NCc5cc(-c6cccs6)on5)(CC3)CO4)c2n1` [Example 73, 1-(2-(3-Fluoro-6-methoxy-1,5-naphthyridin-4-yl)ethyl)-N-((5-(thiophen-2-yl)isoxazol-3-yl)methyl)-2-oxabicyclo[2.2.2]octan-4-amine] was run?
A: The MIC was 0.016 µg/mL (≈ 0.0323 µM).

Q: `COc1ccc2ncc(F)c(CCC34CCC(NCc5csc(-c6ccccn6)n5)(CC3)CO4)c2n1` [Example 75, 1-(2-(3-Fluoro-6-methoxy-1,5-naphthyridin-4-yl)ethyl)-N-((2-(pyridin-2-yl)thiazol-4-yl)methyl)-2-oxabicyclo[2.2.2]octan-4-amine] was tested. Which MIC did it give?
A: The MIC was 4 µg/mL (≈ 7.91 µM).

Q: `COc1ccc2ncc(F)c(CCC34CCC(NCc5cn(-c6ncccn6)cn5)(CC3)CO4)c2n1` [Example 76, 1-(2-(3-Fluoro-6-methoxy-1,5-naphthyridin-4-yl)ethyl)-N-((1-(pyrimidin-2-yl)-1H-imidazol-4-yl)methyl)-2-oxabicyclo[2.2.2]octan-4-amine] was tested. Which MIC did it give?
A: The MIC was 0.125 µg/mL (≈ 0.255 µM).

Q: Which MIC does the source give for `COc1ccc2ncc(F)c(CCC34CCC(NCc5cc6cccnc6s5)(CC3)CO4)c2n1` [Example 77, 1-(2-(3-Fluoro-6-methoxy-1,5-naphthyridin-4-yl)ethyl)-N-(thieno[2,3-b]pyridin-2-ylmethyl)-2-oxabicyclo[2.2.2]octan-4-amine] here?
A: The MIC was 0.125 µg/mL (≈ 0.261 µM).

Q: How did the MIC turn out when `COc1ccc2ncc(F)c(CCC34CCC(NCc5cnc(N6CCCC6)nc5)(CC3)CO4)c2n1` [Example 78, 1-(2-(3-Fluoro-6-methoxy-1,5-naphthyridin-4-yl)ethyl)-N-((2-(pyrrolidin-1-yl)pyrimidin-5-yl)methyl)-2-oxabicyclo[2.2.2]octan-4-amine] was run?
A: The MIC was 0.25 µg/mL (≈ 0.508 µM).

Q: How did the MIC turn out when `COc1ccc2ncc(F)c(CCC34CCC(NCc5cc6ccccc6n(C)c5=O)(CC3)CO4)c2n1` [Example 79, 3-((1-(2-(3-Fluoro-6-methoxy-1,5-naphthyridin-4-yl)ethyl)-2-oxabicyclo[2.2.2]octan-4-ylamino)methyl)-1-methylquinolin-2(1H)-one] was run?
A: Its MIC is 0.5 µg/mL (≈ 0.995 µM).

Q: Which MIC does the source give for `COc1ccc2ncc(F)c(CCC34CCC(NCc5ccc6cc[nH]c6n5)(CC3)CO4)c2n1` [Example 80, N-((1H-Pyrrolo[2,3-b]pyridin-6-yl)methyl)-1-(2-(3-fluoro-6-methoxy-1,5-naphthyridin-4-yl)ethyl)-2-oxabicyclo[2.2.2]octan-4-amine] here?
A: Its MIC is 0.063 µg/mL (≈ 0.136 µM).

Q: `COc1ccc2ncc(F)c(CCC34CCC(NCc5cnc6[nH]ccc6c5)(CC3)CO4)c2n1` [Example 81, N-((1H-Pyrrolo[2,3-b]pyridin-5-yl)methyl)-1-(2-(3-fluoro-6-methoxy-1,5-naphthyridin-4-yl)ethyl)-2-oxabicyclo[2.2.2]octan-4-amine] was tested. Which MIC did it give?
A: The MIC was 0.5 µg/mL (≈ 1.08 µM).

Q: With `COc1ccc2ncc(F)c(CCC34CCC(NCc5ccc(N6CCCC6)nc5)(CC3)CO4)c2n1` [Example 82, 1-(2-(3-Fluoro-6-methoxy-1,5-naphthyridin-4-yl)ethyl)-N-((6-(pyrrolidin-1-yl)pyridin-3-yl)methyl)-2-oxabicyclo[2.2.2]octan-4-amine] as the compound, how does the MIC read?
A: Its MIC is 0.25 µg/mL (≈ 0.509 µM).

Q: Which MIC does the source give for `COc1ccc2ncc(F)c(CCC34CCC(NCc5ccc6ccc(=O)[nH]c6n5)(CC3)CO4)c2n1` [Example 83, 7-((1-(2-(3-Fluoro-6-methoxy-1,5-naphthyridin-4-yl)ethyl)-2-oxabicyclo[2.2.2]octan-4-ylamino)methyl)-1,8-naphthyridin-2(1H)-one] here?
A: The MIC was 1 µg/mL (≈ 2.04 µM).

Q: With `COc1ccc2ncc(F)c(CCC34CCC(NCc5ccc(N6CCCCC6)nc5)(CC3)CO4)c2n1` [Example 84, 1-(2-(3-Fluoro-6-methoxy-1,5-naphthyridin-4-yl)ethyl)-N-((6-(piperidin-1-yl)pyridin-3-yl)methyl)-2-oxabicyclo[2.2.2]octan-4-amine] as the compound, how does the MIC read?
A: The MIC was 0.25 µg/mL (≈ 0.494 µM).

Q: With `COc1ccc2ncc(F)c(CCC34CCC(NCc5cnc(N(C)C)nc5)(CC3)CO4)c2n1` [Example 85, 5-((1-(2-(3-Fluoro-6-methoxy-1,5-naphthyridin-4-yl)ethyl)-2-oxabicyclo[2.2.2]octan-4-ylamino)methyl)-N,N-dimethylpyrimidin-2-amine] as the compound, how does the MIC read?
A: The MIC was 0.125 µg/mL (≈ 0.268 µM).

Q: How did the MIC turn out when `CCOC(=O)c1csc(CNC23CCC(CCc4c(F)cnc5ccc(OC)nc45)(CC2)OC3)n1` [Example 86, Ethyl 2-(((1-(2-(3-Fluoro-6-methoxy-1,5-naphthyridin-4-yl)ethyl)-2-oxabicyclo[2.2.2]octan-4-yl)amino)methyl)thiazole-4-carboxylate] was run?
A: Its MIC is 16 µg/mL (≈ 32 µM).

Q: How did the MIC turn out when `COc1ccc2ncc(F)c(CCC34CCC(NCc5cc6c(cc5F)OCO6)(CC3)CO4)c2n1.Cl` [Example 87, 1-(2-(3-Fluoro-6-methoxy-1,5-naphthyridin-4-yl)ethyl)-N-((6-fluorobenzo[d][1,3]dioxol-5-yl)methyl)-2-oxabicyclo[2.2.2]octan-4-amine Hydrochloride] was run?
A: Its MIC is 0.063 µg/mL.

Q: How did the MIC turn out when `COc1ccc2ncc(F)c(CCC34CCC(NCc5nc6c(cc5Cl)OCC(=O)N6)(CC3)CO4)c2n1.Cl` [Example 88, 7-chloro-6-(((1-(2-(3-fluoro-6-methoxy-1,5-naphthyridin-4-yl)ethyl)-2-oxabicyclo[2.2.2]octan-4-yl)amino)methyl)-2H-pyrido[3,2-b][1,4]oxazin-3(4H)-one] was run?
A: The MIC was 0.008 µg/mL.

Q: With `COc1ccc2ncc(F)c(CCC34CCC(NCc5cnc6c(c5)OCCN6C)(CC3)CO4)c2n1` [Example 89, 1-(2-(3-Fluoro-6-methoxy-1,5-naphthyridin-4-yl)ethyl)-N-((4-methyl-3,4-dihydro-2H-pyrido[3,2-b][1,4]oxazin-7-yl)methyl)-2-oxabicyclo[2.2.2]octan-4-amine] as the compound, how does the MIC read?
A: Its MIC is 0.125 µg/mL (≈ 0.253 µM).

Q: For `COc1ccc2ncc(F)c(CCC34CCC(NCc5ccc6c(c5)OC(F)(F)O6)(CC3)CO4)c2n1` [Example 90, N-((2,2-Difluorobenzo[d][1,3]dioxol-5-yl)methyl)-1-(2-(3-fluoro-6-methoxy-1,5-naphthyridin-4-yl)ethyl)-2-oxabicyclo[2.2.2]octan-4-amine], which MIC is on record?
A: The MIC was 0.125 µg/mL (≈ 0.249 µM).

Q: How did the MIC turn out when `COc1ccc2ncc(F)c(CCC34CCC(NCc5ccc6c(c5)n(C)c(=O)n6C)(CC3)CO4)c2n1` [Example 91, 5-((1-(2-(3-Fluoro-6-methoxy-1,5-naphthyridin-4-yl)ethyl)-2-oxabicyclo[2.2.2]octan-4-ylamino)methyl)-1,3-dimethyl-1H-benzo[d]imidazol-2(3H)-one] was run?
A: Its MIC is 16 µg/mL (≈ 31.6 µM).
